Assay results: US11021481B2, “Substituted isoindolin-1-ones and 2,3-dihydro-1h-pyrrolo[3,4-c]pyridin-1-ones as HPK1 antagonists” (Nimbus Saturn, Inc., priority 2019, dated 2021)

What follows are molecules tested against HPK1 (Homo sapiens (Human), UniProt Q92918) (assay: HPK1 biochemical enzyme assay (microfluidic mobility shift assay)). Details: 1.5 nM HPK1, ATP 1 mM final, 30 min preincubation, 60 min at RT, Caliper EZ Reader; read-out: HPK1 1000UMATP caliper IC50.
Procedure, shortened: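 Ten-point compound titrations (top 3 μM final) preincubated 30 min with HPK1 and substrate, then reaction started with 1 mM ATP and 1 μM substrate, 5 mM MgCl2. After 60 min at RT, reaction terminated and product measured by microfluidic mobility shift.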

HPK1, sequence (Q92918 whole entry): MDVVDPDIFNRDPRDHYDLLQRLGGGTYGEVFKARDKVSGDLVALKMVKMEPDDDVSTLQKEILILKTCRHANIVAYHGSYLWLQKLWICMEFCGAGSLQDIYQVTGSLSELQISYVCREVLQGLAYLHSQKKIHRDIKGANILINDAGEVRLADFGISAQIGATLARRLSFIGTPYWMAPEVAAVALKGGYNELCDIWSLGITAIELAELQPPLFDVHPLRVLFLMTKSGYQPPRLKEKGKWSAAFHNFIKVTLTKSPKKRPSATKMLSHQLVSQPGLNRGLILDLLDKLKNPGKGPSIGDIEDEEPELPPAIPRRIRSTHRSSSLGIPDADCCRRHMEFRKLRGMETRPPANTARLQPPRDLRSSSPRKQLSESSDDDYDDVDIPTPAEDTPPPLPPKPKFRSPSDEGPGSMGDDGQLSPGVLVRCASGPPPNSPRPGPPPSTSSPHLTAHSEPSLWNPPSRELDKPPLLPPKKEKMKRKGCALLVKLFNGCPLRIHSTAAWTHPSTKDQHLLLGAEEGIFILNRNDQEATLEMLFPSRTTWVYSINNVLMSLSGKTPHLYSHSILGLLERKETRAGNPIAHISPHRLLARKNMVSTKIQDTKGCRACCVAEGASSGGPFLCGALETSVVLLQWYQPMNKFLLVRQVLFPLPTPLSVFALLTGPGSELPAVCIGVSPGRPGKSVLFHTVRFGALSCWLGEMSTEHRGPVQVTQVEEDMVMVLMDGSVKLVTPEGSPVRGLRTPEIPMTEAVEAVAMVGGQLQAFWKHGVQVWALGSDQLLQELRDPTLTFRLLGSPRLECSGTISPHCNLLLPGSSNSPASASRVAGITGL

| IC50 | SMILES |
| --- | --- |
| 100 to 1000 nM | O=C1NCc2c(-c3cnn4c3CCCCC4)ccc(Nc3ccc(N4CCC(O)CC4)cn3)c21 [I-283, 7-((5-(4-hydroxy-piperidin-1-yl)pyridin-2-yl)amino)-4-(5,6,7,8-tetrahydro-4H-pyrazolo[1,5-a]azepin-3-yl)isoindolin-1-one] |
| < 100 nM | CC(C)N(C)Cc1nc(Nc2ccc(-c3cnc4cc(F)ccn34)c3c2C(=O)NC3)ccc1C1CCOC1 (stereo in doubt) [I-730, (R)-4-(7-fluoroimidazo [1,2-a]pyridin-3-yl)-7-((6-((isopropyl(methyl)amino)methyl)-5-(tetrahydrofuran-3-yl)pyridin-2-yl)amino)isoin-dolin-1-one] |
| 100 to 1000 nM | Cc1[nH]c2ncccc2c1-c1ncc(Nc2ccc(N3CCN(C)CC3)cn2)c2c1CNC2=O [I-15] |
| < 100 nM | C[C@H](O)[C@@H]1CCCN(c2ccc(Nc3ccc(-c4cnc5cc(F)ccn45)c4c3C(=O)NC4)nc2)C1 (stereo in doubt) [I-363, 4-(7-fluoroimidazo [1,2-a]pyridin-3-yl)-7-((5-((S)-3-((R)-1-hydroxyethyl)piperidin-1-yl)pyridin-2-yl)amino)isoin-dolin-1-one] |
| < 100 nM | O=C1NCc2c(-c3cnc4cc(F)ccn34)ccc(Nc3ccc([C@H]4CCOC4)c(CN4CCCC4)n3)c21 [I-515, (R)-4-(7-fluoroimidazo [1,2-a]pyridin-3-yl)-7-((6-(pyrrolidin-1-ylmethyl)-5-(tetrahydrofuran-3-yl)pyridin-2-yl)amino)isoin-dolin-1-one] |
| < 100 nM | Cc1cc2c(-c3ccc(Nc4ccc(N5CCN(C)CC5)cn4)c4c3CNC4=O)ccnc2[nH]1 [I-38, 7-[[5-(4-methylpiperazin-1-yl)-2-pyridyl]amino]-4-(2-methyl-1H-pyrrolo[2,3-b]pyridin-4-yl)isoindolin-1-one] |
| < 100 nM | O=C1NCc2c(-c3cnc4cc(F)ccn34)ccc(Nc3cccc(N4CC[C@H]5CNC[C@H]54)n3)c21 [I-497, 4-(7-fluoroimidazo [1,2-a]pyridin-3-yl)-7-((6-((3aS,6aS)-hexahydropy-rrolo[3,4-b]pyrrol-1(2H)-yl)pyridin-2-yl)amino)isoin-dolin-1-one] |
| < 100 nM | O=C1NCc2c(-c3cnc4cc(F)ccn34)ccc(Nc3ccc(N4CCOC[C@H](O)C4)cn3)c21 [I-338, (R)-4-(7-fluoroimidazo [1,2-a]pyridin-3-yl)-7-((5-(6-hydroxy-1,4-oxazepan-4-yl)pyridin-2-yl)amino)isoin-dolin-1-one] |
| < 100 nM | CC1(O)CCN(c2ccc(Nc3ccc(-c4cnc5cnccn45)c4c3C(=O)NC4)nc2)CC1 [I-313, 7-((5-(4-hydroxy-4-methylpiperidin-1-yl)pyridin-2-yl)amino)-4-(imidazo[1,2-a]pyrazin-3-yl)isoindolin-1-one] |
| < 100 nM | O=C1NCc2c(-c3cnc4ccccn34)ccc(Nc3ccc(N4CCNCC4)cn3)c21 [I-60, 4-imidazo[1,2-a]pyridin-3-yl-7-[(5-piperazin-1-yl-2-pyridyl)amino] isoindolin-1-one] |
| < 100 nM | CO[C@H]1CCN(Cc2nc(Nc3ccc(-c4cnc5cc(F)ccn45)c4c3C(=O)NC4)ccc2[C@@H]2CCOC2)C1 [I-790, 4-(7-fluoroimidazo [1,2-a]pyridin-3-yl)-7-((6-(((S)-3-methoxypyrrol-idin-1-yl)methyl)-5-((S)-tetrahydiofuran-3-yl)pyridin-2-yl)amino)isoin-dolin-1-one] |
| < 100 nM | CN1CCN(c2ccc(Nc3cnc(-c4c[nH]c5ncccc45)c4c3C(=O)NC4)nc2)CC1 [I-6, 7-((5-(4-Methylpiperazin-1-yl)pyridin-2-yl)amino)-4-(1H-pyrrolo[2,3-b]pyridin-3-yl)-2,3-dihydro-1H-pyrrolo[3,4-c]pyridin-1-one] |
| < 100 nM | CN(C)C(C)(C)[C@]1(O)CCCN(c2ccc(Nc3ccc(-c4cnc5cc(F)ccn45)c4c3C(=O)NC4)nc2)C1 [I-715, (S)-7-((5-(3-(2-(dimethylami-no)propan-2-yl)-3-hydroxy-piperidin-1-yl)pyridin-2-yl)amino)-4-(7-fluoroimidazo [1,2-a]pyridin-3-yl)isoindolin-1-one] |
| < 100 nM | Cc1csc2c(-c3ccc(Nc4ccc(N5CCC(O)CC5)cn4)c4c3CNC4=O)ccnc12 [I-361, 7-((5-(4-hydroxypip-eridin-1-yl)pyridin-2-yl)amino)-4-(3-methylthieno [3,2-b]pyridin-7-yl)isoindolin-1-one] |
| < 100 nM | O=C1NCc2c(-c3cnc4cc(Cl)ccn34)ccc(Nc3ccc(N4CCC(O)(CN5CCOCC5)CC4)cn3)c21 [I-447, 4-(7-chloroimidazo [1,2-a]pyridin-3-yl)-7-((5-(4-hydroxy-4-(morpholino-methyl)piperidin-1-yl)pyridin-2-yl)amino)isoin-dolin-1-one] |
| < 100 nM | CN(Cc1nc(Nc2ccc(-c3cnc4cc(F)ccn34)c3c2C(=O)NC3)ccc1[C@H]1CCOC1)C1CC1 [I-737] |
| < 100 nM | Cc1ccn2c(-c3ccc(Nc4ccc(N5CCC[C@@H](O)C5)cn4)c4c3CNC4=O)cnc2c1 [I-172, 7-[[5-[(3R)-3-hydroxy-1-piperipyl]-2-pyridyl]amino]-4-(7-methylimidazo [1,2-a]pyridin-3-yl)isoindolin-1-one] |

| IC50 | SMILES |
| --- | --- |
| > 1000 nM | Cc1cnn2c(-c3ccc(Nc4ccc(N5CCC(O)CC5)cn4)c4c3CNC4=O)ccnc12 [I-165, 7-[[5-(4-hydroxy-1-piperidxl)-2-pyridyl]amino]-4-(3-methylpyra-zolo[1,5-a]pyrimidin-7-yl)isoindolin-1-one] |
| < 100 nM | O=C1NCc2c(-c3cnc4cc(C(F)F)ccn34)ccc(Nc3ccc([C@@]4(O)CCOC4)cn3)c21 [I-610, (S)-4-(7-(difluoromethyl)-imidazo[1,2-a]pyridin-3-yl)-7-((5-(3-hydroxytetra-hydrofuran-3-yl)pyridin-2-yl)amino)isoin-dolin-1-one] |
| < 100 nM | Cc1ccn2c(-c3ccc(Nc4ccc(N5CCO[C@H](C(C)(C)O)C5)cn4)c4c3CNC4=O)cnc2c1 [I-490, 7-[[5-[(2S)-2-(1-hydroxy-1-methylethyl)morpholin-4-yl]-2-pyridyl]amino]-4-(7-methylimidazo [1,2-a]pyridin-3-yl)isoindolin-1-one] |
| < 100 nM | CN1CCN(c2ccc(Nc3ccc(-c4cnc5cnccn45)c4c3C(=O)NC4)nc2)CC1 [I-76, 4-imidazo[1,2-a]pyrazin-3-yl-7-[[5-(4-methylpiperazin-1-yl)-2-pyridyl]amino] isoindolin-1-one] |
| 100 to 1000 nM | Cc1ncc2c(-c3ccc(Nc4ccc(N5CCC(O)CC5)cn4)c4c3CNC4=O)cccn12 [I-180, 7-[[5-(4-hydroxy-1-piperidyl)-2-pyridyl]amino]-4-(3-methyliminidazo [1.5-a]pyridin-8-yl)isoindolin-1-one] |
| < 100 nM | CCN(CC)Cc1nc(Nc2ccc(-c3cnc4cc(F)ccn34)c3c2C(=O)NC3)ccc1[C@@H]1CCOC1 [I-511, (S)-7-((6-((diethylamino)methyl)-5-(tetrahydrofuran-3-yl)pyridin-2-yl)amino)-4-(7-fluoroimidazo [1,2-a]pyridin-3-yl)isoindolin-1-one] |
| > 1000 nM | O=C1NCc2c(-c3cnc4cc(F)ccn34)ccc(Nc3cccc(N4CCCC4=O)n3)c21 [I-340, 4-(7-fluoroimidazo [1,2-a]pyridin-3-yl)-7-((6-(2-oxopyrrolidin-1-yl)pyridin-2-yl)amino)isoin-dolin-1-one] |
| < 100 nM | Cc1cnn2c(-c3ccc(Nc4ccc([C@@H]5CCOC5)c(CN(C)C)n4)c4c3CNC4=O)cnc2c1 [I-538, (S)-7-((6-((dimethylamino)-methyl)-5-(tetrahydrofuran-3-yl)pyridin-2-yl)amino)-4-(7-methylimidazo [1,2-b]pyridazin-3-yl)isoindolin-1-one] |
| < 100 nM | CN(C)CCOC1(c2ccc(Nc3ccc(-c4cnc5cc(F)ccn45)c4c3C(=O)NC4)nc2)CCOCC1 [I-669, 7-((5-(4-(2-(dimethylami-no)ethoxy)tetra-hydro-2H-pyran-4-yl)pyridin-2-yl)amino)-4-(7-fluoroimidazo [1,2-a]pyridin-3-yl)isoindolin-1-one] |
| < 100 nM | Cn1ccc2c(-c3ncc(Nc4ccc(N5CCC[C@H](O)C5)cn4)c4c3CNC4=O)ccnc21 [I-179, 7-[[5-[(3S)-3-hydroxy-1-piperidyl]-2-pyridyl]amino]-4-(1-methylpyrrolo [2,3-b]pyridin-4-yl)-2,3-dihydropyrrolo [3,4-c]pyridin-1-one] |
| < 100 nM | CC(C)(O)[C@H]1CN(c2ccc(Nc3cnc(-c4cnc5c(Cl)cccn45)c4c3C(=O)NC4)nc2)CCO1 [I-462] |
| > 1000 nM | Cn1ccc2c(-c3ccc(Nc4ccc(N5CCNCC5)cn4)c4c3C(C)(C)NC4=O)ccnc21 [I-273, 3,3-dimethyl-4-(1-methyl-1H-pyrrolo[2,3-b]pyridin-4-yl)-7-((5-(piperazin-1-yl)pyridin-2-yl)amino)isoindolin-1-one] |
| < 100 nM | CN(CCO)Cc1nc(Nc2ccc(-c3cnc4cc(F)ccn34)c3c2C(=O)NC3)ccc1C1CCOC1 (stereo in doubt) [I-734, (R)-4-(7-fluoroimidazo [1,2-a]pyridin-3-yl)-7-((6-(((2-hydroxyethy (methyl)amino)methyl)-5-(tetrahydrofuran-3-yl)pyridin-2-yl)amino)isoin-dolin-1-one] |
| < 100 nM | CN1CCN(c2ccc(Nc3ccc(-c4ccnc5cc[nH]c45)c4c3C(=O)NC4)nc2)CC1 [I-81, 7-[[5-(4-methylpiperazin-1-yl)-2-pyridyl]amino]-4-(1H-pyrrolo[3,2-b]pyridin-7-yl)isoindolin-1-one] |
| < 100 nM | Cn1ccc2c(-c3ccc(Nc4ccc(N5CCC[C@H](O)C5)cn4)c4c3CNC4=O)ccnc21 [I-116, 7-[[5-[(3S)-3-hydroxy-1-piperidyl]-2-pyridyl]amino]-4-(1-methylpyrrolo [2,3-b]pyridin-4-yl)isoindolin-1-one] |
| < 100 nM | COC[C@H]1CN(c2ccc(Nc3ccc(-c4cnc5cc(F)ccn45)c4c3C(=O)NC4)nc2)CCO1 [I-421, (R)-4-(7-fluoroimidazo [1,2-a]pyridin-3-yl)-7-((5-(2-(methoxymeth-yl)morpholino)pyridin-2-yl)amino)isoin-dolin-1-one] |
